From patent publication US20240108602A1, “TREATMENT OF MENTAL DISORDERS” (GH Research Ireland Limited, priority 2022, published 2024)
Where “and” joins values, the source holds several entries; their conditions need not be identical. Identical values can stand only once.

System: patients with treatment-resistant major depressive disorder (TRD)
Test: Phase 1/2 clinical trial of inhaled 5-MeO-DMT in TRD patients (12 mg, 18 mg, individualized dosing regimen IDR 6/12/18 mg)
Protocol: Patients were assigned to different groups. In the context of the present invention, the group who received a single, 12 mg dose and the group who underwent an intra-day individualized dosing regimen (IDR) that allowed for multiple, escalating doses (6 mg, 12 mg and 18 mg) within a single day, driven by the intensity of the patient-reported psychedelic experience are of interest.
The data gathered include the assessment of the treated patients against several scales including the Montgomery-Åsberg Depression Rating Scale (MADRS) and the Brief Psychiatric Rating Scale (BPRS).
This trial was designed in two parts. Part A was an open-label, single-arm, single-dose Phase 1 trial with two dose levels (12 mg (n=4) and 18 mg (n=4)). […] The primary endpoint of Part B was to assess the effects on the severity of depression, as assessed by the proportion of patients in remission on day seven after dosing, defined as a MADRS total score of less than or equal to 10.

COc1ccc2[nH]cc(CCN(C)C)c2c1 [5-MeO-DMT]
MADRS Concentration Difficulties improvement (points) (12 mg n=4, 2 h): 9
MADRS Concentration Difficulties percentage improvement (12 mg n=4, 2 h): 56% and 56.25%
MADRS Concentration Difficulties summed score (12 mg n=4, 2 h): 7
MADRS Inability to Feel improvement (points) (12 mg n=4, 2 h): 7
MADRS Inability to Feel percentage improvement (12 mg n=4, 2 h): 44% and 43.75%
MADRS Inability to Feel summed score (12 mg n=4, 2 h): 9
MADRS Inner Tension improvement (points) (12 mg n=4, 2 h): 11
MADRS Inner Tension percentage improvement (12 mg n=4, 2 h): 85% and 84.62%
MADRS Inner Tension summed score (12 mg n=4, 2 h): 2
MADRS Lassitude improvement (points) (12 mg n=4, 2 h): 6
MADRS Lassitude percentage improvement (12 mg n=4, 2 h): 38% and 37.50%
MADRS Lassitude summed score (12 mg n=4, 2 h): 10
MADRS Pessimistic Thoughts improvement (points) (12 mg n=4, 2 h): 8
MADRS Pessimistic Thoughts percentage improvement (12 mg n=4, 2 h): 50%
MADRS Pessimistic Thoughts summed score (12 mg n=4, 2 h): 8
MADRS Suicidal Thoughts improvement (points) (12 mg n=4, 2 h): 5
MADRS Suicidal Thoughts percentage improvement (12 mg n=4, 2 h): 63% and 62.50%
MADRS Suicidal Thoughts summed score (12 mg n=4, 2 h): 3
BPRS Anxiety improvement (points) (12 mg n=4, 3 h): 14
BPRS Anxiety percentage improvement (12 mg n=4, 3 h): 56%
BPRS Anxiety summed score (12 mg n=4, 3 h): 11
BPRS Blunted Affect improvement (points) (12 mg n=4, 3 h): 3
BPRS Blunted Affect percentage improvement (12 mg n=4, 3 h): 27% and 27.27%
BPRS Blunted Affect summed score (12 mg n=4, 3 h): 8
BPRS Emotional Withdrawal improvement (points) (12 mg n=4, 3 h): 2
BPRS Emotional Withdrawal percentage improvement (12 mg n=4, 3 h): 15% and 15.38%
BPRS Emotional Withdrawal summed score (12 mg n=4, 3 h): 11
BPRS Guilt Feelings improvement (points) (12 mg n=4, 3 h): 9
BPRS Guilt Feelings percentage improvement (12 mg n=4, 3 h): 50%
BPRS Guilt Feelings summed score (12 mg n=4, 3 h): 9
BPRS Tension improvement (points) (12 mg n=4, 3 h): 5
BPRS Tension percentage improvement (12 mg n=4, 3 h): 36% and 35.71%
BPRS Tension summed score (12 mg n=4, 3 h): 9
BPRS Anxiety improvement (points) (12 mg n=4, Day 1): 19
BPRS Anxiety percentage improvement (12 mg n=4, Day 1): 76%
BPRS Anxiety summed score (12 mg n=4, Day 1): 6
BPRS Blunted Affect improvement (points) (12 mg n=4, Day 1): 5
BPRS Blunted Affect percentage improvement (12 mg n=4, Day 1): 45% and 45.45%
BPRS Blunted Affect summed score (12 mg n=4, Day 1): 6
BPRS Emotional Withdrawal improvement (points) (12 mg n=4, Day 1): 5
BPRS Emotional Withdrawal percentage improvement (12 mg n=4, Day 1): 38% and 38.46%
BPRS Emotional Withdrawal summed score (12 mg n=4, Day 1): 8
BPRS Guilt Feelings improvement (points) (12 mg n=4, Day 1): 13
BPRS Guilt Feelings percentage improvement (12 mg n=4, Day 1): 72% and 72.22%
BPRS Guilt Feelings summed score (12 mg n=4, Day 1): 5
BPRS Tension improvement (points) (12 mg n=4, Day 1): 8
BPRS Tension percentage improvement (12 mg n=4, Day 1): 57% and 57.14%
BPRS Tension summed score (12 mg n=4, Day 1): 6
MADRS Concentration Difficulties improvement (points) (12 mg n=4, Day 1): 14
MADRS Concentration Difficulties percentage improvement (12 mg n=4, Day 1): 88% and 87.50%
MADRS Concentration Difficulties summed score (12 mg n=4, Day 1): 2
MADRS Inability to Feel improvement (points) (12 mg n=4, Day 1): 15
MADRS Inability to Feel percentage improvement (12 mg n=4, Day 1): 94% and 93.75%
MADRS Inability to Feel summed score (12 mg n=4, Day 1): 1
MADRS Inner Tension improvement (points) (12 mg n=4, Day 1): 10
MADRS Inner Tension percentage improvement (12 mg n=4, Day 1): 77% and 76.92%
MADRS Inner Tension summed score (12 mg n=4, Day 1): 3
MADRS Lassitude improvement (points) (12 mg n=4, Day 1): 16
MADRS Lassitude percentage improvement (12 mg n=4, Day 1): 100%
MADRS Lassitude summed score (12 mg n=4, Day 1): 0
MADRS Pessimistic Thoughts improvement (points) (12 mg n=4, Day 1): 9
MADRS Pessimistic Thoughts percentage improvement (12 mg n=4, Day 1): 56% and 56.25%
MADRS Pessimistic Thoughts summed score (12 mg n=4, Day 1): 7
MADRS Reduced Sleep improvement (points) (12 mg n=4, Day 1): 2
MADRS Reduced Sleep percentage improvement (12 mg n=4, Day 1): 17% and 16.67%
MADRS Reduced Sleep summed score (12 mg n=4, Day 1): 10
MADRS Suicidal Thoughts improvement (points) (12 mg n=4, Day 1): 3
MADRS Suicidal Thoughts percentage improvement (12 mg n=4, Day 1): 38% and 37.50%
MADRS Suicidal Thoughts summed score (12 mg n=4, Day 1): 5
BPRS Anxiety improvement (points) (12 mg n=4, Day 7): 19
BPRS Anxiety percentage improvement (12 mg n=4, Day 7): 76%
BPRS Anxiety summed score (12 mg n=4, Day 7): 6
BPRS Blunted Affect improvement (points) (12 mg n=4, Day 7): 6
BPRS Blunted Affect percentage improvement (12 mg n=4, Day 7): 55% and 54.55%
BPRS Blunted Affect summed score (12 mg n=4, Day 7): 5
BPRS Emotional Withdrawal improvement (points) (12 mg n=4, Day 7): 7
BPRS Emotional Withdrawal percentage improvement (12 mg n=4, Day 7): 54% and 53.85%
BPRS Emotional Withdrawal summed score (12 mg n=4, Day 7): 6
BPRS Guilt Feelings improvement (points) (12 mg n=4, Day 7): 13
BPRS Guilt Feelings percentage improvement (12 mg n=4, Day 7): 72% and 72.22%
BPRS Guilt Feelings summed score (12 mg n=4, Day 7): 5
BPRS Tension improvement (points) (12 mg n=4, Day 7): 8
BPRS Tension percentage improvement (12 mg n=4, Day 7): 57% and 57.14%
BPRS Tension summed score (12 mg n=4, Day 7): 6
MADRS Concentration Difficulties improvement (points) (12 mg n=4, Day 7): 13
MADRS Concentration Difficulties percentage improvement (12 mg n=4, Day 7): 81% and 81.25%
MADRS Concentration Difficulties summed score (12 mg n=4, Day 7): 3
MADRS Inability to Feel improvement (points) (12 mg n=4, Day 7): 15
MADRS Inability to Feel percentage improvement (12 mg n=4, Day 7): 94% and 93.75%
MADRS Inability to Feel summed score (12 mg n=4, Day 7): 1
MADRS Inner Tension improvement (points) (12 mg n=4, Day 7): 8
MADRS Inner Tension percentage improvement (12 mg n=4, Day 7): 62% and 61.54%
MADRS Inner Tension summed score (12 mg n=4, Day 7): 5
MADRS Lassitude improvement (points) (12 mg n=4, Day 7): 13
MADRS Lassitude percentage improvement (12 mg n=4, Day 7): 81% and 81.25%
MADRS Lassitude summed score (12 mg n=4, Day 7): 3
MADRS Pessimistic Thoughts improvement (points) (12 mg n=4, Day 7): 8
MADRS Pessimistic Thoughts percentage improvement (12 mg n=4, Day 7): 50%
MADRS Pessimistic Thoughts summed score (12 mg n=4, Day 7): 8
MADRS Reduced Sleep improvement (points) (12 mg n=4, Day 7): 6
MADRS Reduced Sleep percentage improvement (12 mg n=4, Day 7): 50%
MADRS Reduced Sleep summed score (12 mg n=4, Day 7): 6
MADRS Suicidal Thoughts improvement (points) (12 mg n=4, Day 7): 1
MADRS Suicidal Thoughts percentage improvement (12 mg n=4, Day 7): 13% and 12.50%
MADRS Suicidal Thoughts summed score (12 mg n=4, Day 7): 7
patients with MADRS remission (12 mg n=4, day seven): 50%
mean MADRS change from baseline (12 mg, day seven): −21.0
mean MADRS change from baseline, percent (12 mg, day seven): −65%
further patients with MADRS clinical response (18 mg n=4, day seven): 25%
patients with MADRS remission (18 mg n=4, day seven): 25%
mean MADRS change from baseline, percent (18 mg, day seven): −41%
patients maintaining remission (fraction) (Day 7): ⅞
